#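 96-well plates; 48 h exposure; 5 concentrations. Endpoints by linear interpolation between flanking doses. Not reached: highest tested concentration assigned. Here, GI50 denotes the concentration required for 50% inhibition of growth. TGI marks complete inhibition of growth.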
# What was measured:
# Experiment in all cases: inhibition of tumour cell growth, NCI panel, 48 h
# SNB-75 CNS = test system: SNB-75 CNS
# UACC-62 melanoma = test system: UACC-62 melanoma
# SF-295 CNS = test system: SF-295 CNS
# NCI-H522 lung = test system: NCI-H522 lung
# MDA-MB-231 breast = test system: MDA-MB-231 breast
# HOP-62 NSCLC = test system: HOP-62 NSCLC
# OVCAR-8 ovarian = test system: OVCAR-8 ovarian
# SK-MEL-28 melanoma = test system: SK-MEL-28 melanoma
# SN12C renal = test system: SN12C renal
# OVCAR-4 ovarian = test system: OVCAR-4 ovarian
Compound,GI50 (SNB-75 CNS),TGI (SNB-75 CNS),GI50 (UACC-62 melanoma),TGI (UACC-62 melanoma),GI50 (SF-295 CNS),TGI (SF-295 CNS),GI50 (NCI-H522 lung),TGI (NCI-H522 lung),GI50 (MDA-MB-231 breast),TGI (MDA-MB-231 breast),GI50 (HOP-62 NSCLC),TGI (HOP-62 NSCLC),GI50 (OVCAR-8 ovarian),TGI (OVCAR-8 ovarian),GI50 (SK-MEL-28 melanoma),TGI (SK-MEL-28 melanoma),GI50 (SN12C renal),TGI (SN12C renal),GI50 (OVCAR-4 ovarian),TGI (OVCAR-4 ovarian)
CC1=C2[C@@H](CC1)[C@]1(C)O[C@@](C(C)C)(C[C@H]1OC(=O)CO)[C@H]2OC(=O)CCCc1ccccc1,2.08 µM,18.5 µM,3.42 µM,13.2 µM,12.5 µM,24.9 µM,7.51 µM,24.6 µM,12.9 µM,31.8 µM,13.4 µM,26.8 µM,4.58 µM,26.8 µM,13.9 µM,26.8 µM,4.52 µM,18 µM,11.9 µM,29.1 µM
CC1(C)N=c2cc3c(cc2N1c1ccc(Cl)cc1)=Nc1ccccc1N3c1ccc(Cl)cc1,2.45 µM,71.6 µM,7.18 µM,> 100 µM,2.08 µM,28.5 µM,3.93 µM,74.6 µM,59.7 µM,> 100 µM,> 100 µM,> 100 µM,4.01 µM,51.9 µM,45.3 µM,> 100 µM,7.9 µM,> 100 µM,4.33 µM,> 100 µM
CC1(C)CCc2c(c(N=Nc3ccccc3F)c3ccccc3c2O)O1,20.4 µM,53.3 µM,> 100 µM,> 100 µM,17.8 µM,44 µM,38.6 µM,> 100 µM,17.6 µM,37.9 µM,45.3 µM,> 100 µM,23.3 µM,51.4 µM,> 100 µM,> 100 µM,22.7 µM,53.1 µM,66.2 µM,> 100 µM
O=C1c2ccccc2C(=O)c2c1oc1c2c(=O)[nH]c2ccc(Cl)cc21,0.16 µM,0.418 µM,0.285 µM,1.15 µM,0.637 µM,2.29 µM,0.318 µM,1.4 µM,0.165 µM,0.519 µM,0.202 µM,0.643 µM,0.389 µM,2.29 µM,0.339 µM,1.23 µM,0.198 µM,0.463 µM,0.165 µM,0.443 µM
O=C(Nc1cccc(C(F)(F)F)c1)c1ccc(NC2=C(Cl)C(=O)N(Cc3ccccc3)C2=O)cc1,23.1 µM,51.4 µM,12.9 µM,25.5 µM,10.1 µM,23.6 µM,3.02 µM,8.29 µM,6.53 µM,23.9 µM,13.1 µM,25.8 µM,38.4 µM,> 100 µM,18.2 µM,36.5 µM,4.4 µM,20.1 µM,25.8 µM,54.7 µM
Cc1cc(=O)oc2cc3oc(N(C)c4ccccc4)nc(=O)c3cc12,,> 100 µM,,> 100 µM,,> 100 µM,,> 100 µM,,> 100 µM,,> 100 µM,,> 100 µM,,> 100 µM,,> 100 µM,,> 100 µM
Cc1ccc2[nH]c(C(=O)NN3C(=O)C(C)SC34CCC(C)CC4)c(-c3ccccc3)c2c1 (stereo not drawn),24.4 µM,51.4 µM,11.8 µM,25.6 µM,14.3 µM,32.9 µM,13 µM,31.1 µM,15.4 µM,31.6 µM,18.1 µM,37.7 µM,21.2 µM,53.2 µM,17.8 µM,35.9 µM,13 µM,28 µM,14.8 µM,34.7 µM
CC[C@H]1CCC/C=C/[C@@H]2C[C@H](O)C[C@H]2[C@H](O)/C=C/C(=O)O1,< 0.0119 µM,> 100 µM,0.0384 µM,> 37.7 µM,0.0545 µM,> 100 µM,0.211 µM,0.634 µM,0.0213 µM,0.0416 µM,0.0809 µM,,0.0432 µM,> 100 µM,0.0219 µM,0.134 µM,0.053 µM,> 100 µM,0.0361 µM,
COc1cc2c(/C=C3/C(=O)Nc4ccc(O)cc43)c(Cl)n(Cc3cc(OC)c(OC)c(OC)c3)c2cc1C,1.61 µM,> 59.8 µM,1.58 µM,8.56 µM,0.795 µM,5.67 µM,0.633 µM,4.45 µM,4.75 µM,> 100 µM,1.65 µM,29.4 µM,3.05 µM,> 26.5 µM,0.878 µM,5.94 µM,4.14 µM,> 44 µM,4.03 µM,> 100 µM
CCc1cccc(NC(=O)Nc2ccc(Oc3ccc4nc(NC(=O)OC)[nH]c4c3)cc2)c1,2.53 µM,> 14.1 µM,1.93 µM,10.1 µM,3.4 µM,> 20.4 µM,0.921 µM,14.8 µM,7.76 µM,> 25 µM,3.1 µM,11 µM,5.79 µM,> 18.8 µM,3.52 µM,9.49 µM,8.43 µM,> 25 µM,4.45 µM,9.89 µM
Fc1ccc(-c2ncn(CCCN3CCOCC3)c2-c2ccncc2)cc1,> 25 µM,> 25 µM,> 25 µM,> 25 µM,> 25 µM,> 25 µM,> 25 µM,> 25 µM,> 25 µM,> 25 µM,> 25 µM,> 25 µM,> 25 µM,> 25 µM,> 25 µM,> 25 µM,> 25 µM,> 25 µM,> 25 µM,> 25 µM
Cc1ccc(-c2nc(/C=N/Nc3cc(C)nc4ccc(Br)cc34)c(C)o2)cc1,1.74 µM,3.39 µM,1.73 µM,3.36 µM,2.86 µM,8.8 µM,1.94 µM,4.13 µM,1.98 µM,3.77 µM,1.87 µM,3.55 µM,2.08 µM,4.4 µM,1.73 µM,3.25 µM,1.88 µM,3.69 µM,1.89 µM,3.49 µM
